{"source": "patent US8552035B2", "about": "“Phenanthrenone compounds, compositions and methods” (Pfizer Inc., priority 2008, dated 2013)", "format_in_all_cases": "in vivo", "key": {"osteocalcin": {"test_system": "osteocalcin", "test": "28-day mouse side-effect model, serum osteocalcin suppression", "settings": "oral gavage 28 days; for ED50 at 28 days: female, Swiss Webster, read-out: Osteocalcin Suppression (ED50 dose)", "procedure": "(§1) 10-12 week old female Swiss Webster mice (Taconic, Germantown, N.Y., U.S.A.) weighing 27-29 grams are used in accordance with the guidelines of the Institutional Animal Care and Use Committee and in accordance with NIH guidelines on laboratory animal welfare. Mice are acclimated to the Pfizer animal facility for 3-7 days prior to being placed on study. Prednisolone and DAGR compounds are administered by oral gavage for a total of 28 days. Each treatment group generally contains 8-10 mice. To establish a dosing regimen for the studies, a pilot pharmacodynamic time course experiment is conducted to quantify TNFa repression after a single ED80 dose (determined from the acute LPS endotoxemia mouse model). […] DAGR compounds vary in their required frequency of doses.\n(§2) Body weights are measured on the first and last day of each experiment. Blood samples are obtained after ˜3 weeks of dosing for steady-state pharmacokinetic analysis. To assess compound effects on LPS-induced TNF-a, all mice receive an intraperitoneal injection of LPS (Salmonella Typhosa, Sigma, St. Louis, L-7895) 2.5 hr after the last dose on day 28. Mice are sacrificed 90 min. after LPS administration. Serum samples are assayed for osteocalcin and TNFa using the Linco multiplex assay (St. Charles, Mo.) and Luminex 100 (Austin, Tex.). Samples are diluted 1:20 and the assay is run according to manufacturer's instructions. An osteocalcin standard is purchased separately from Biomedical Technologies Incorporated (Stoughton, Mass.). Serum insulin is measured to assess compound effects on insulin resistance. Insulin was measured using the UltraSensitive Mouse EIA kit from Alpco Diagnostics (Salem, N.H.) following the manufacturer's protocol.\n(§3) ED50 and ED80 values are obtained for the various parameters using four-parameter logistic fits of data. For each experiment/dose group, outliers are detected by calculating the number of standard deviations each mouse's value was from the mean of their group and then dividing by the standard deviation of the group. The means and standard deviations used in this calculation omitted the value being examined so that, if it were an outlier, it would have no influence. If the value being examined is more than 2.5 standard deviations from the mean, it was not used in the rest of the calculations.\n(§4) Percent inhibition values are then calculated for each animal using the means of the vehicle and 10 mpk prednisone control groups. The individual mouse percent inhibition values are then fit to a four-parameter logistic model using the area under curve mean for each group. Since all four parameters are estimated and the lower plateau is not fixed at 0% and the upper plateau was not fixed at 100%, the ED50 and ED80 values are calculated by using an inverse calibration formula for a response equal to 50% or 80%. The designation “nd” means not determined."}, "LPS-induced TNFα": {"test_system": "LPS-induced TNFα", "test": "28-day mouse side-effect model, LPS-induced serum TNFα suppression", "settings": "oral gavage 28 days, LPS challenge; for ED50: 672 h, read-out: TNFα Suppression (ED50 dose)", "procedure": "as §1, §2, §3, §4"}, "[1]": {"test_system": "Mouse collagen-induced arthritis", "test": "Therapeutic mouse collagen-induced arthritis (mCIA)", "settings": "for ED50: 816 h, dosing day 34 to 49, read-out: Therapeutic mCIA (ED50 dose); for Therapeutic mCIA (ED80 dose): dosing day 34 to 49", "from_the_text": "Mouse Collagen-induced arthritis is a commonly used chronic, preclinical model of rheumatoid arthritis in which joint swelling and bone destruction occur following immunization with type II collagen. Reduction of disease incidence and severity has been shown previously to be predictive of disease-modification and signs and symptoms mitigation, respectively, in a clinical setting.\nIn the therapeutic mCIA model, induction of disease incidence and severity was synchronized via LPS stimulation. Male DBA/J mice were immunized with 100 ug of bovine type II collagen (bCII) on day 0. All mice received an intraperitoneal injection of 20 μg of LPS on day 28 and disease was allowed to develop through day 34. At day 34, all mice had disease (incidence=100%) with an average severity score of seven. Dosing of compounds was initiated in the therapeutic mode on day 34 and continued through day 49. Different treatments were compared by measuring the decrease in incidence (i.e., resolution of disease) and the decrease in severity of paw swelling over time.\nas §3, §4"}, "bone formation rate": {"test_system": "bone formation rate", "test": "28-day mouse side-effect model, cortical bone histomorphometry (bone formation rate)", "settings": "oral gavage 28 days, tibia cortical bone formation rate; for ED50 at 28 days: female, Swiss Webster, read-out: BFR (ED50 dose)", "procedure": "as §1\nDuring the in-life portion of each study, mice received two IP injections of the fluorochrome calcein (C-0875; Sigma-Aldrich; 20 mg/kg; 200 μL/mouse), dissolved in 2% sodium bicarbonate, on days 1 and 26 for bone histomorphometry measurements. Fluorochrome labels incorporate into the bone mineral and allow measurement of bone formation rate. During the tissue harvest, the left tibia is excised and cleaned for cortical histomorphometry measurements. After all skin and muscle are removed, tibiae are placed in 70% ethanol (4° C.) in the dark for a minimum of 24 hours.\nGround transverse sections are used for histomorphometric analysis of cortical bone^1. Bones are sectioned using a low speed saw (Isomet, Buehler, Lake Bluff, Ill.) equipped with a diamond wafer blade. The end of each tibia is removed proximal to tibia-fibula synostosis and a […] cross-section is cut. Using a roughened glass plate and a cork, sections are ground to […] until transparent and all labels distinguishable under a fluorescent microscope. Sections are dehydrated using the following solutions for a minimum of 2 minutes each: 1) 70% ethanol, 2) 95% ethanol, 3) 100% ethanol, 4) 50/50 ethanol/xylene, and 5) xylene (twice) (Sigma, St. Louis, 534056). Sections are mounted using Eukitt Quick Mounting Medium (Sigma, St. Louis, 03989) and cover-slipped. Using the Osteomeasure Bone Analysis Program (Decatur, Ga.), bone formation rate is calculated by tracing the 1st and 2nd fluorescent labels in addition to tracing the inner and outer perimeter of the bone. Bone formation rate is calculated by the following equation: (Interlabel Width/Label Interval)*(Labeled Perimeter/Bone Perimeter). At least 5 samples are measured from each treatment group in each study.\nas §3, §4"}, "serum insulin": {"test_system": "serum insulin", "test": "28-day mouse side-effect model, serum insulin", "settings": "oral gavage 28 days; for ED50 at 28 days: female, Swiss Webster, read-out: Insulin (ED50 dose)", "procedure": "as §1, §2, §3, §4"}}, "data": [{"compound": "Cc1ncccc1NC(=O)c1ccc2c(c1)CC[C@@H]1C[C@@](O)(C(F)(F)F)[C@](C)(O)C[C@@]21Cc1ccccc1", "note": "[Comparator E, (4bR,6R,7S,8aR)-4b-benzyl-6,7-dihydroxy-6-methyl-N-(2-methylpyridin-3-yl)-7-(trifluoromethyl)-4b,5,6,7,8,8a,9,10-octahydrophenanthrene-2-carboxamide]", "values": [{"measurement": "ED50 at 28 days", "setting": "osteocalcin", "value": 0.78, "unit": "mg/kg"}, {"measurement": "Osteocalcin Suppression (ED80 dose)", "setting": "osteocalcin", "value": ">1"}, {"measurement": "ED50", "setting": "LPS-induced TNFα", "value": "> 1", "unit": "mg/kg"}, {"measurement": "TNFα Suppression (ED80 dose)", "setting": "LPS-induced TNFα", "value": ">1"}, {"measurement": "ED50", "setting": "[1]", "value": 0.13, "unit": "mg/kg"}, {"measurement": "Therapeutic mCIA (ED80 dose)", "setting": "[1]", "value": 1.15}, {"measurement": "ED50 at 28 days", "setting": "bone formation rate", "value": 0.28, "unit": "mg/kg"}, {"measurement": "BFR (ED80 dose)", "setting": "bone formation rate", "value": 0.33}, {"measurement": "ED50 at 28 days", "setting": "serum insulin", "value": "> 1", "unit": "mg/kg"}, {"measurement": "Insulin (ED80 dose)", "setting": "serum insulin", "value": ">1"}]}, {"compound": "C[C@@]1(O)C[C@@]2(Cc3ccccc3)c3ccc(C(=O)NCc4cccnc4)cc3CC[C@@H]2C[C@@]1(O)c1ccccc1", "note": "[Comparator D, (4bR,6R,7R,8aR)-4b-benzyl-6,7-dihydroxy-6-methyl-7-phenyl-N-(pyridin-3-ylmethyl)-4b,5,6,7,8,8a,9,10-octahydrophenanthrene-2-carboxamide]", "values": [{"measurement": "ED50 at 28 days", "setting": "osteocalcin", "value": "> 60", "unit": "mg/kg"}, {"measurement": "Osteocalcin Suppression (ED80 dose)", "setting": "osteocalcin", "value": ">60"}, {"measurement": "ED50", "setting": "LPS-induced TNFα", "value": 11.4, "unit": "mg/kg"}, {"measurement": "TNFα Suppression (ED80 dose)", "setting": "LPS-induced TNFα", "value": 14.48}, {"measurement": "ED50 at 28 days", "setting": "bone formation rate", "value": 35.9, "unit": "mg/kg"}, {"measurement": "BFR (ED80 dose)", "setting": "bone formation rate", "value": ">60"}, {"measurement": "ED50 at 28 days", "setting": "serum insulin", "value": "> 60", "unit": "mg/kg"}, {"measurement": "Insulin (ED80 dose)", "setting": "serum insulin", "value": ">60"}]}, {"compound": "Cc1ncccc1NC(=O)c1ccc2c(c1)CC[C@@H]1C[C@@](O)(c3ccccn3)[C@](C)(O)C[C@@]21Cc1ccccc1", "note": "[Comparator C, (4bR,6R,7R,8aR)-4b-benzyl-6,7-dihydroxy-6-methyl-N-(2-methylpyridin-3-yl)-7-(pyridin-2-yl)-4b,5,6,7,8,8a,9,10-octahydrophenanthrene-2-carboxamide]", "values": [{"measurement": "ED50 at 28 days", "setting": "osteocalcin", "value": 3.68, "unit": "mg/kg"}, {"measurement": "Osteocalcin Suppression (ED80 dose)", "setting": "osteocalcin", "value": ">20"}, {"measurement": "ED50", "setting": "LPS-induced TNFα", "value": 3.08, "unit": "mg/kg"}, {"measurement": "TNFα Suppression (ED80 dose)", "setting": "LPS-induced TNFα", "value": 9.87}, {"measurement": "ED50", "setting": "[1]", "value": 0.8, "unit": "mg/kg"}, {"measurement": "Therapeutic mCIA (ED80 dose)", "setting": "[1]", "value": 2.9}, {"measurement": "ED50 at 28 days", "setting": "bone formation rate", "value": 3.72, "unit": "mg/kg"}, {"measurement": "BFR (ED80 dose)", "setting": "bone formation rate", "value": 7.88}, {"measurement": "ED50 at 28 days", "setting": "serum insulin", "value": "> 20", "unit": "mg/kg"}, {"measurement": "Insulin (ED80 dose)", "setting": "serum insulin", "value": ">20"}]}]}
